Reference: the NIST ThermoML archive (doi:10.1016/j.jct.2017.08.004)
± gives the expanded uncertainty stated by the source.

Test: Molar enthalpy of transition or fusion
Conditions: Crystal; DSC

Molar enthalpy of transition or fusion [kcal/mol] | Structure (SMILES)
12 ± 1.7 | O[C@H]1[C@H](O)[C@@H](O)[C@H](O)[C@@H](O)[C@H]1O [cis-1,2,3,5-trans-4,6-cyclohexanehexol]
10.7 ± 1.29 | OC[C@@H](O)[C@@H](O)CO [meso-1,2,3,4-butanetetrol]
9.44 ± 0.598 | OC[C@@H](O)[C@H](O)[C@@H](O)CO [xylitol]

Continued, molecule first:

Structure (SMILES) | Molar enthalpy of transition or fusion [kcal/mol]
OC[C@@H](O)C(O)[C@H](O)CO [D-arabitol] | 9.46 ± 0.789
OC[C@@H](O)[C@@H](O)[C@H](O)[C@H](O)CO [D-mannitol] | 13.3 ± 2.13
OC[C@H](O)C(O)[C@@H](O)CO [L-(-)-arabitol] | 8.79 ± 1.77
